Patent US20240207265A1, “TREATMENT OF CNS DISEASES WITH sGC STIMULATORS” (Tisento Therapeutics Inc., priority 2021, published 2024)

Experiments:
cGMP = cGMP concentration in rat CSF after single oral dose (CSF biomarker); format: in vivo
Method: Rats were administered a single dose of either vehicle or sGC stimulator (1, 3, 10 or 30 mg/kg). One, two and six hours after administration, CSF samples were collected and analyzed to determine cGMP and compound concentrations and plasma samples were collected and analyzed to determine compound concentration. Each rat was sampled one time or multiple times with 3 or more days in between each dosing. The day before the experiment rats were fasted overnight with ad libitum access to water.
On the day of the experiment, compound and cyclic guanosine monophosphate (cGMP) concentrations in rat CSF was determined following oral dosing. Male CD rats implanted with an intracisternal cannula (250-275 g) were used for these studies. Rats were single housed under controlled conditions of temperature (21±1° C.), relative humidity (36±1%) and placed in a 12-hr light-dark cycle (lights on at 6:00 AM and off at 6:00 PM) room at SmartLabs vivarium (21 Erie Street, Cambridge, MA) under protocol MIL-110. Animals were allowed ad libitum access to chow (LabDiet Prolab Isopro RMH 3000, St. Louis, MO) and water. The rats were dosed with 0 mg/kg (vehicle), 1 mg/kg, 3 mg/kg, 10 mg/kg, or 30 mg/kg of a compound of the invention formulated as a suspension in 0.5% methylcellulose, 0.5% Tween80 or as a solution in MilliQ water. […]
Plasma and CSF samples were collected under isoflurane anesthesia as follows: samples of CSF and blood were collected at 1, 2, and 6 hours post-dosing. […] Plasma and CSF was collected and analyzed for the presence of a compound.
The compound of the invention, cGMP and the internal standard were extracted from plasma and CSF by precipitation. Samples were analyzed using liquid chromatography (LC) with tandem mass spectrometric detection (MS/MS) using electrospray ionization. […] CSF cGMP data were graphed using Graphpad Prism, version 8.4.3 and are expressed as means±S.E.M. Data were analyzed with a Mixed-effects analysis followed by Dunnett's multiple comparison test comparing to vehicle-treated rats within timepoint. […]

[1] = Microdialysis experiments in rat brain; format: in vivo; details: 3 mg/kg PO as sodium salt, Sprague Dawley rats
Method: The goal of the current study was to evaluate levels of sGC stimulators of the invention in the hippocampus and striatum interstitial fluid (ISF), as well as in the circulating plasma after administration to Sprague Dawley male rats. To do so, rats were implanted with microdialysis probes in the hippocampus and striatum and a jugular vein cannula (JVC). After the collection of one pre-dose ISF sample, animals were dosed with sGC stimulator. Samples were collected for 24 hours through a hippocampal and striatal probe as well as serial plasma sampling collected through the JVC after administration. All collected samples were stored at −80° C. waiting for analysis on compound levels in the dialysate.
Five Sprague Dawley rats pre-cannulated with a jugular vein cannula were used for this study. Upon arrival, rats were group-housed in polycarbonate cages (2-3/cage) and acclimated for at least 3 days prior to commencing studies. Animals were housed in a 12 hr light/dark cycle with room temperature maintained at 22+2° C. and approximately 50% humidity and received food and water ad libitum. Rats were tracked via unique identifying numbers. Experiments were conducted in accordance with protocols approved by the Institutional Animal Care and Use Committee of Charles River Laboratories South San Francisco. […]

## Cc1cc(F)c(Cc2nc(-c3ncc(F)c(O)n3)cn3ccnc23)cc1F [Compound I-14, 5-fluoro-2-(8-(2,5-difluoro-4-methylbenzyl)imidazo[1,2-a]pyrazin-6-yl)pyrimidin-4-ol]
cGMP; 1 mg/kg PO as sodium salt, two hours after dosing
  concentration of cGMP in rat CSF vs vehicle-treated rats: significantly higher cGMP in CSF
cGMP; 3 mg/kg PO as sodium salt, one and two hours after dosing
  concentration of cGMP in rat CSF vs vehicle-treated rats: significantly higher concentrations of cGMP in the CSF
cGMP; 10 or 30 mg/kg PO as sodium salt, 1, 2 and 6 hours postdose
  concentration of cGMP in rat CSF vs vehicle-treated rats: significantly higher cGMP in the CSF
[1]
  side effects of the treatment: No obvious side effects
